From patent publication US8940754B2, “10′-fluorinated Vinca alkaloids provide enhanced biological activity against MDR cancer cells” (priority 2010, dated 2015)
Read-outs that look alike come from different tables or passages of the source.

Assays:
[1] = system: L1210, HCT116, HCT116/VM46; assay: cytotoxic activity in the cell-based assays, overall comparison with the parent compound; settings: for enhancement of cytotoxic activity by C-10′ fluorine substitution: vs natural product without fluorine; for fold more potent than the natural products themselves: vs vinblastine / vincristine, Table 2C
HCT116 = assay: cells; assay type: cell-based, human; settings: Homo sapiens
L1210 = assay: cells; assay type: cell-based, mouse; settings: Mus musculus
HCT116/VM46 = assay: cells; assay type: cell-based, human; settings: for IC50: Homo sapiens
[2] = HCT-116, Table 2B, C10′-substituted vinblastines, single evaluations, read-out: IC50 (nM) HCT116
[3] = L1210, Table 2B, C10′-substituted vinblastines, single evaluations, read-out: IC50 (nM) L1210
[4] = HCT-116/VM46, Table 2B, C10′-substituted vinblastines, single evaluations, read-out: IC50 (nM) HCT116/VM46

SMILES | enhancement of cytotoxic activity by C-10′ fluorine substitution [1] | IC50 (HCT116; HCT-116, read-out: IC50 (nM) HCT116) [nM] | IC50 (L1210; L1210, read-out: IC50 (nM) L1210) [nM] | IC50 (HCT116/VM46; HCT-116/VM46, read-out: IC50 (nM) HCT116/VM46) [nM] | fold more potent than the natural products themselves [1] | IC50 (HCT116; [2]) [nM] | IC50 (L1210; [3]) [nM] | IC50 (HCT116/VM46; [4]) [nM] | increased activity against vinblastine resistant cell line (HCT116/VM46) (HCT116/VM46; vs vinblastine) | IC50 (HCT116; HCT-116, Table 2C, side-by-side, multiple examinations with several independent samples, read-out: IC50 (nM) HCT116) [nM] | IC50 (L1210; L1210, Table 2C, side-by-side, multiple examinations with several independent samples, read-out: IC50 (nM) L1210) [nM] | IC50 (HCT116/VM46; HCT-116/VM46, Table 2C, side-by-side, multiple examinations with several independent samples, read-out: IC50 (nM) HCT116/VM46) [nM]
CCC1=C[C@@H]2CN(CCc3c([nH]c4ccc(F)cc34)[C@@](C(=O)OC)(c3cc4c(cc3OC)N(C)C3C(O)(C(=O)OC)[C@H](OC(C)=O)[C@]5(CC)C=CCN6CC[C@]43[C@@H]65)C2)C1 (some centres unmarked) [Compound 19a, 10′-fluoroanhydrovinblastine] | about 8 fold | 50 | 30 | 290 | – | – | – | – | – | – | – | –
CC[C@]1(O)C[C@@H]2CN(CCc3c([nH]c4ccc(F)cc34)[C@@](C(=O)OC)(c3cc4c(cc3OC)N(C)C3C(O)(C(=O)OC)[C@H](OC(C)=O)[C@]5(CC)C=CCN6CC[C@]43[C@@H]65)C2)C1 (some centres unmarked) [Compound 19b, 10′-fluorovinblastine] | about 8 fold | – | – | – | about 8 fold | 0.9 | 0.7 | 80 | about 8 fold | – | – | –
CC[C@]1(O)C[C@@H]2CN(CCc3c([nH]c4ccc(OC)cc34)[C@@](C(=O)OC)(c3cc4c(cc3OC)N(C)C3C(O)(C(=O)OC)[C@H](OC(C)=O)[C@]5(CC)C=CCN6CC[C@]43[C@@H]65)C2)C1 (some centres unmarked) [Compound 22b, 10′-methoxyvinblastine] | – | – | – | – | – | 720 | 670 | > 10000 | – | – | – | –
CC[C@]1(O)C[C@@H]2CN(CCc3c([nH]c4ccc(F)cc34)[C@@](C(=O)OC)(c3cc4c(cc3OC)N(C=O)C3C(O)(C(=O)OC)[C@H](OC(C)=O)[C@]5(CC)C=CCN6CC[C@]43[C@@H]65)C2)C1 (some centres unmarked) [Compound 28, 10′-fluorovincristine] | – | – | – | – | about 8 fold | – | – | – | – | 1 | 0.7 | 90
